The data set can be described thus: Pharmacokinetic-scintigraphic study of systemic absorption. The class given is in vivo. The settings on record: healthy volunteers. As to the method:
The disintegration behavior of the tablets was also evaluated in vivo, at the intestinal site, in a study carried out on 8 healthy volunteers. A scintigraphic technique was employed as it is suitable for evaluating the position and integrity of the tablet within the gastrointestinal tract (Steed K.P. et al. Int J Pharmaceutics 1994; 112:199-206). […] These findings confirmed that the modified-relase tablets of the invention meet the requirements considered necessary for a formulation designed for the topical treatment of inflammatory bowel disease.

Each structure is given as a SMILES string.

With `CCC(=O)OCC(=O)[C@@]1(OC(=O)CC)[C@@H](C)C[C@H]2[C@@H]3CCC4=CC(=O)C=C[C@]4(C)[C@@]3(Cl)[C@@H](O)C[C@@]21C` [BDP, beclomethasone dipropionate], the “systemic absorption of unmetabolised BDP and/or of its metabolites” value is “absence of systemic absorption”.
